Source: the NIST ThermoML archive (doi:10.1021/acs.jced.8b00765)
Several values for one entry are separate records, joined by “and”; a condition that tells them apart may be missing. Equal values may be shown once. Numbers after ± are expanded uncertainties.

What was measured:
[1] = refractive index (Na D-line) (dimensionless); conditions: 293.15 K; 101.33 kPa; Liquid; Standard Abbe refractometry
[2] = Liquid; for vapor or sublimation pressure: Closed cell (Static) method; for mass density: 101.33 kPa, Vibrating tube method

| SMILES | refractive index [1] | vapor or sublimation pressure ([2]; 298.18 K) [kPa] | vapor or sublimation pressure ([2]; 298.19 K) [kPa] | vapor or sublimation pressure ([2]; 303.16 K) [kPa] | vapor or sublimation pressure ([2]; 303.18 K) [kPa] | vapor or sublimation pressure ([2]; 308.15 K) [kPa] | vapor or sublimation pressure ([2]; 293.18 K) | vapor or sublimation pressure ([2]; 303.17 K) [kPa] | mass density ([2]; 313.15 K) [kg/m3] | vapor or sublimation pressure ([2]; 313.16 K) [kPa] | also measured |
| --- | --- | --- | --- | --- | --- | --- | --- | --- | --- | --- | --- |
| C1CCCCC1 [cyclohexane] | 1.426 ± 0.001 | 13.4 ± 0.3 | 13.1 ± 0.3 | 16.4 ± 0.3 | 16.4 ± 0.3 | 20.3 ± 0.3 |  |  |  |  | vapor or sublimation pressure ([2]; 293.17 K): 10.4 ± 0.3 kPa; vapor or sublimation pressure ([2]; 293.21 K): 10.6 ± 0.3 kPa; mass density ([2]; 308.15 K): 765 ± 1 kg/m3; vapor or sublimation pressure ([2]; 313.17 K): 24.9 ± 0.3 kPa |
| C=CCCCC [hex-1-ene] | 1.388 ± 0.001 | 24.8 ± 0.3 |  | 30.5 ± 0.3 |  |  | 19.9 ± 0.3 kPa and 20 ± 0.3 kPa | 30.6 ± 0.3 | 655 ± 1 | 45.1 ± 0.3 | vapor or sublimation pressure ([2]; 308.16 K): 37.2 ± 0.3 kPa; vapor or sublimation pressure ([2]; 313.15 K): 45.1 ± 0.3 kPa |
| CCCCC [pentane] | 1.358 ± 0.001 | 68.5 ± 0.4 | 68.5 ± 0.4 |  | 82.2 ± 0.4 |  | 56.6 ± 0.4 kPa | 82.2 ± 0.4 |  |  | vapor or sublimation pressure ([2]; 288.18 K): 46.5 ± 0.3 kPa; mass density ([2]; 293.15 K): 626 ± 1 kg/m3; vapor or sublimation pressure ([2]; 293.2 K): 56.6 ± 0.4 kPa; vapor or sublimation pressure ([2]; 308.17 K): 97.9 ± 0.4 kPa |
| CC(C)O [propan-2-ol] | 1.377 ± 0.001 |  |  | 7.9 ± 0.3 |  | 10.5 ± 0.3 | 4.2 ± 0.3 kPa |  | 768 ± 1 | 14 ± 0.3 | vapor or sublimation pressure ([2]; 293.16 K): 4.2 ± 0.3 kPa; vapor or sublimation pressure ([2]; 298.17 K): 5.8 ± 0.3 kPa; vapor or sublimation pressure ([2]; 303.15 K): 7.8 ± 0.3 kPa; vapor or sublimation pressure ([2]; 313.14 K): 13.9 ± 0.3 kPa |
